Test [1] is described as follows: Inhibition of HIV reverse transcriptase M184V mutant in cell free assay. To be noted: Human immunodeficiency virus.
Test [2] has as its target Human immunodeficiency virus type 1 reverse transcriptase (Human immunodeficiency virus 1, UniProt Q72547, M184I). Briefly: Inhibition of HIV reverse transcriptase M184I mutant in cell free assay.
A short description of test [3]: Inhibition of recombinant wild type HIV reverse transcriptase. More on the design: species or system Human immunodeficiency virus.
A short description of test [4]: Inhibition of wild type HIV reverse transcriptase in cell free assay. The note with it: Human immunodeficiency virus.

One may read the IC50 as the concentration that gives 50% inhibition. With `Nc1ccn([C@@H]2CS[C@H](COP(=O)(O)OP(=O)(O)OP(=O)(O)O)O2)c(=O)n1` [LAMIVUDINE TRIPHOSPHATE], the IC50 was more than 10 µM in test [1], more than 10 µM in test [2], 3 µM in test [3] and 6.5 µM in test [4].
With `Nc1nc(=O)n([C@H]2C[C@@H](COP(=O)(O)OP(=O)(O)OP(=O)(O)O)C2)cc1F`, the IC50 in test [2] was 6.1 µM; in test [3] it was 4.7 µM; in test [4], 6.9 µM.

Source of the values: ChEMBL document CHEMBL1148002, “Synthesis and evaluation of 2'-substituted cyclobutyl nucleosides and nucleotides as potential anti-HIV agents” (Bioorg Med Chem Lett, 2007).
